tested on: pERK1/2(THR202/TYR204) level in AsPC-1 cells; experiment: pERK assay (HTRF) in AsPC-1 cell line; format: cell-based; settings: Homo sapiens, ASPC1, 2 h, 2 h compound treatment
In short: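 AsPC-1 (KRAS G12D) cells, 30000/well, seeded overnight, then treated 2 h with a 10-point series at 0 to 10 μM final. Lysate pERK1/2 (Thr202/Tyr204) detected by HTRF after overnight antibody incubation at room temperature; IC50 from percent inhibition versus log concentration.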

Point of comparison: N#Cc1c(N)sc2c(F)ccc(-c3c(C(F)(F)F)cc4c(N5CC6CCC(C5)N6)nc(OCC5(CO)COC5)nc4c3F)c12 [Example 57, 4-(4-(3,8-diazabicyclo[3.2.1]octan-3-yl)-8-fluoro-2-((3-(hydroxymethyl)oxetan-3-yl)methoxy)-6-(trifluoromethyl)quinazolin-7-yl)-2-amino-7-fluorobenzo[b]thiophene-3-carbonitrile], IC50 294 nM. Against it:
- CCc1cc2c(N3CC4CCC(C3)N4)nc(OCC34COC(C)(C3)C4)nc2c(F)c1-c1ccc(F)c2sc(N)c(C#N)c12 [Example 52, 4-(4-(3,8-diazabicyclo[3.2.1]octan-3-yl)-6-ethyl-8-fluoro-2-((1-methyl-2-oxabicyclo[2.1.1]hexan-4-yl)methoxy)quinazolin-7-yl)-2-amino-7-fluorobenzo[b]thiophene-3-carbonitrile] — within 1.5-fold, 235 nM
- N#Cc1c(N)sc2c(F)ccc(-c3c(C(F)(F)F)cc4c(N5CC6CCC(C5)N6)nc(OCC5(CF)COC5)nc4c3F)c12 [Example 53, 4-(4-(3,8-diazabicyclo[3.2.1]octan-3-yl)-8-fluoro-2-((3-(fluoromethyl)oxetan-3-yl)methoxy)-6-(trifluoromethyl)quinazolin-7-yl)-2-amino-7-fluoro benzo[b]thiophene-3-carbonitrile] — 8.9-fold lower, 33 nM
- Cn1ccnc1N1CC(C)(COc2nc(N3CC4CCC(C3)N4)c3cc(C(F)(F)F)c(-c4ccc(F)c5sc(N)c(C#N)c45)c(F)c3n2)C1 [Example 54, 4-(4-(3,8-diazabicyclo[3.2.1]octan-3-yl)-8-fluoro-2-((3-methyl-1-(1-methyl-1H-imidazol-2-yl)azetidin-3-yl)methoxy)-6-(trifluoromethyl)quinazolin-7-yl)-2-amino-7-fluorobenzo[b]thiophene-3-carbonitrile] — 9.2-fold lower, 32 nM
- CC1(COc2nc(N3CC4CCC(C3)N4)c3cc(C(F)(F)F)c(-c4ccc(F)c5sc(N)c(C#N)c45)c(F)c3n2)CC2(COC2)C1 [Example 55, 4-(4-(3,8-diazabicyclo[3.2.1]octan-3-yl)-8-fluoro-2-((6-methyl-2-oxaspiro[3.3]heptan-6-yl)methoxy)-6-(trifluoromethyl)quinazolin-7-yl)-2-amino-7-fluorobenzo[b]thiophene-3-carbonitrile] — within 1.5-fold, 332 nM
- COCC12CC(COc3nc(N4CC5CCC(C4)N5)c4cc(C(F)(F)F)c(-c5ccc(F)c6sc(N)c(C#N)c56)c(F)c4n3)(C1)C(C)(C)O2 [Example 56, 4-(4-(3,8-diazabicyclo[3.2.1]octan-3-yl)-8-fluoro-2-((1-(methoxymethyl)-3,3-dimethyl-2-oxabicyclo[2.1.1]hexan-4-yl)methoxy)-6-(trifluoromethyl)quinazolin-7-yl)-2-amino-7-fluorobenzo[b]thiophene-3-carbonitrile] — 2.7-fold lower, 109 nM
